Experimental data reported in patent US20240368174A1, “Antiviral Heterocyclic Compounds” (Enanta Pharmaceuticals, Inc., priority 2023, published 2024).

What was measured:
[1] = system: genotype A, “Long” strain RSV; test: RSV-A assay (CPE, ATPlite readout in Hep-2 cells); type: cell-based, Human respiratory syncytial virus; conditions: human respiratory syncytial virus, activity class
Description: Hep-2 cells, (originally derived from tumors grown in irradiated-cortisonised weanling rats that had been injected with epidermoid carcinoma tissue from the larynx of a person, but later found to be indistinguishable from HeLa cells by PCR DNA analysis), were used for the culturing of genotype A, “Long” strain RSV. Flasks were inoculated with RSV and viral stocks were collected once cytopathic effect (CPE) was greater than 90%. Viral stocks in 25% sucrose media were snap frozen using liquid nitrogen to increase viral stability. Viral stock titers were quantified by tissue culture infectious dose 50% (TCID50) using 8,000 cells per well and 3-fold viral dilutions across a 96-well plate, cultured for 4 days. Viral stock titers were also quantified by a plaque forming unit assay, as described elsewhere.
Following extensive parameter testing, the final assay is run as follows: Hep-2 cells are seeded into the inner 60 wells of a 96-well plate at 8,000 cells per well in a volume of 50 μL using Growth Media (DMEM without phenol red, 1% L-Glut, 1% Penn/Strep, 1% nonessential amino acids, 10% heat-inactivated FBS). 2-fold serial dilutions of control and test compounds are added to the wells in duplicate in a total volume of 25 μL. Viral stock is then added to the wells at a multiplicity of infection (MOI) of 0.1 in a volume of 25 μL, bringing the total volume of each well to 100 μL. The MOI is calculated using the PFU/mL, or TCID50 if unavailable. Each 96-well plate has a control column of 6 wells with cells and virus but no compound (negative control, max CPE), a column with cells but no compound or virus (positive control, minimum CPE), and a column with no cells or virus or compound (background plate/reagent control). The control wells with cells but no virus are given an additional 25 μL of growth media containing an equal quantity of sucrose as those wells receiving the viral stock in order to keep consistent in media and volume conditions. The outer wells of the plate are filled with 125 μL of moat media (DMEM, 1% Penn/Strep) to act as a thermal and evaporative moat around the test wells. Following a 5-day incubation period, the plates are read using ATPlite (50 uL added per well), which quantifies the amount of ATP (a measure of cell health) present in each well. Assay plates are read using the Envision luminometer. […] EC50 ranges are as follows: A<0.2 μM; B>0.2 μM.

[2] = system: HMPV clinical isolate A2 strain TN 94-49; test: HMPV antiviral assay, Method 2 (LLC-MK2 cells with CP-100-356, ATP-Lite); type: cell-based; conditions: human metapneumovirus; hMPV A2 TN/94-49, LLC-MK2 cells with CP-100-356, Method 2
How it was run: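 LLC-MK2 rhesus kidney cells (5,000/well) infected in suspension with HMPV A2 TN 94-49 at MOI 0.16, in serum-free medium with final 2 μg/mL TPCK-trypsin and 2 μM CP-100-356. Compounds tested in duplicate from 200 nM, 2.5-fold, 10 points; 7 days at 37 °C. Cell health by ATP-Lite luminescence; EC50 by four-parameter fit.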

[3] = system: HMPV clinical isolate A2 strain TN 94-49; test: HMPV antiviral assay, Method 1 (LLC-MK2 cells, ATP-Lite); type: cell-based; conditions: human metapneumovirus, hMPV A2 TN/94-49, LLC-MK2 cells
How it was run: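 LLC-MK2 cells (5,000/well) infected in suspension with HMPV A2 TN 94-49 at MOI 0.005 in serum-free OptiMEM with 2 μg/mL final TPCK-trypsin, compounds in duplicate from 2 μM top, 2.5-fold, 10 points. After 7 days at 37° C, cell health by ATP-Lite luminescence normalised to virus and cell controls; EC50 from four-parameter fit.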

| EC50 [1] [nM] | EC50 [2] [nM] | EC50 [3] [nM] | SMILES |
| --- | --- | --- | --- |
| < 200 |  |  | COc1cc(C(=O)NC[C@](O)(c2cc3c(c(-c4cc(C(F)(F)F)ncc4F)n2)OC[C@]3(C)C(N)=O)C2(F)CC2)cn2cc(C3CC3)nc12 [Example 461] |
| < 200 |  |  | COc1cc(C(=O)NC[C@](O)(c2cc3c(c(-c4ccnc(C)c4Cl)n2)OC[C@]3(C)C(N)=O)C2CC2)cc2cn(C3CC3)nc12 [Example 426] |
| < 200 |  |  | COc1cc(C(=O)NC[C@](O)(c2cc3c(c(-c4cc(C(F)(F)F)ncc4F)n2)OC[C@]3(C)C(N)=O)C2(F)CC2)cc2cn(C3(F)CC3)nc12 [Example 459] |
|  | > 200 | > 500 | COc1cc(C(=O)NC[C@@](O)(c2ccc(C(F)(F)F)cc2)c2cc3c(c(-c4cc(Cl)c(F)cc4F)n2)OC[C@]3(C)C(N)=O)cc2cn(C3CC3)nc12 [Example 130] |
|  | < 200 | < 500 | COc1cc(C(=O)NC[C@@](O)(c2cccc(F)c2)c2cc3c(c(-c4cc(C(F)(F)F)c(F)cc4F)n2)OC[C@]3(C)C(N)=O)cc2cn(C3CC3)nc12 [Example 295] |
|  | < 200 | < 500 | COc1cc(C(=O)NC[C@](O)(c2cc3c(c(-c4ccc(F)c(C)c4Cl)n2)OC[C@]3(C)C(N)=O)C2CC2)cc2cn(C3CC3)nc12 [Example 69] |
|  | < 200 | < 500 | COc1cc(C(=O)NC[C@@](O)(c2ccccn2)c2cc3c(c(-c4cc(Cl)c(F)cc4F)n2)OC[C@]3(C)C(N)=O)cc2cn(C3CC3)nc12 [Example 463] |
|  | < 200 | > 500 | COc1cc(C(=O)NC[C@](O)(c2cc3c(c(-c4cc(F)c(F)cc4F)n2)OC[C@]3(C)C(N)=O)C2CC(F)(F)C2)cc2cn(C(F)F)nc12 [Example 33] |
|  | < 200 | < 500 | COc1cc(C(=O)NC[C@@](O)(c2ccc(F)cc2)c2cc3c(c(-c4cc(Cl)c(F)cc4F)n2)OC[C@]3(C)C(N)=O)cc2cn(C3(F)CC3)nc12 [Example 14] |
|  | < 200 | < 500 | COc1cc(C(=O)NC[C@@](O)(c2ccccc2)c2cc3c(c(-c4cc(Cl)c(F)cc4F)n2)OC[C@]3(C)C(N)=O)cc2cn(C3(F)CC3)nc12 [Example 158] |
|  | < 200 | < 500 | COc1cc(C(=O)NC[C@@](O)(c2cccnc2)c2cc3c(c(-c4cc(Cl)c(F)cc4F)n2)OC[C@]3(C)C(N)=O)cc2cn(C3CC3)nc12 [Example 131] |
|  | < 200 | < 500 | COc1cc(C(=O)NC[C@@](O)(c2ccccc2)c2cc3c(c(-c4cc(C(F)(F)F)ccc4F)n2)OC[C@]3(C)C(N)=O)cc2cn(C3CC3)nc12 [Example 147] |
|  | < 200 | < 500 | COc1cc(C(=O)NC[C@@](O)(c2cccc(F)c2)c2cc3c(c(-c4cc(C(F)(F)F)c(F)cc4F)n2)OC[C@]3(C)C(N)=O)cc2oc(C3CC3)nc12 [Example 297] |
|  | < 200 | < 500 | COc1cc(C(=O)NC[C@](O)(c2cc3c(c(-c4ccc(F)c(Cl)c4Cl)n2)OC[C@]3(C)C(N)=O)C(F)(F)F)cc2cn(C3CC3)nc12 [Example 65] |
|  | < 200 | < 500 | COc1cc(C(=O)NC[C@@](O)(c2ccsc2)c2cc3c(c(-c4cc(F)c(F)cc4F)n2)OC[C@]3(C)C(N)=O)cc2cn(C3(F)CC3)nc12 [Example 179] |
|  | < 200 | < 500 | COc1cc(C(=O)NC[C@](O)(c2cc3c(c(-c4ccc(F)c(Cl)c4Cl)n2)OC[C@]3(C)C(N)=O)C(F)(F)F)cc2cn(C(F)F)nc12 [Example 66] |
|  | < 200 | < 500 | COc1cc(C(=O)NC[C@](O)(c2cc3c(c(-c4cc(Cl)c(F)cc4F)n2)OC[C@]3(C)C(N)=O)C2CC2)cn2cc(C3CC3)nc12 [Example 77] |

More lines, now with the values behind:

| SMILES | EC50 [1] [nM] | EC50 [2] [nM] | EC50 [3] [nM] |
| --- | --- | --- | --- |
| COc1cc(C(=O)NC[C@](O)(c2cc3c(c(-n4ccc5c6c(ccc54)OC(F)(F)O6)n2)OC[C@]3(C)C(N)=O)C2CC2)cc2cn(C3CC3)nc12 [Example 855] | < 200 |  |  |
| COc1cc(C(=O)NC[C@](O)(c2cc3c(c(-c4ccn(C)c(=O)c4Cl)n2)OC[C@]3(C)C(N)=O)C2CC2)cc2cn(C3CC3)nc12 [Example 423] | > 200 |  |  |
| COc1cc(C(=O)NC[C@](O)(c2cc3c(c(-c4ccc5c(c4)OC(F)(F)O5)n2)OC[C@]3(C)C(N)=O)C2CC2)cc2cc(C)c(F)nc12 [Example 22] |  | < 200 | < 500 |
| COc1cc(C(=O)NC[C@@](O)(c2ccc(F)cc2)c2cc3c(c(-c4cc(Cl)c(F)cc4F)n2)OC[C@]3(C)C(N)=O)cc2cn(C3CC3)nc12 [Example 12] |  | < 200 | < 500 |
| COc1ccc([C@](O)(CNC(=O)c2cc(OC)c3nn(C4CC4)cc3c2)c2cc3c(c(-c4cc(Cl)c(F)cc4F)n2)OC[C@]3(C)C(N)=O)cc1 [Example 165] |  | < 200 | < 500 |
| COc1cc(C(=O)NC[C@@](O)(c2cccc(F)c2)c2cc3c(c(-c4ccc(F)c(Cl)c4Cl)n2)OC[C@]3(C)C(N)=O)cc2oc(C3CC3)nc12 [Example 280] |  | < 200 | < 500 |
| COc1cc(C(=O)NC[C@@](O)(c2ccccc2)c2cc3c(c(-c4cccc(Cl)c4Cl)n2)OC[C@]3(C)C(N)=O)cc2cn(C3(F)CC3)nc12 [Example 262] |  | < 200 | < 500 |
| COc1cc(C(=O)NC[C@@](O)(c2ccc(F)cc2)c2cc3c(c(-c4ccc5c(c4Cl)OC(F)(F)O5)n2)OC[C@]3(C)C(N)=O)cc2cn(C3(F)CC3)nc12 [Example 263] |  | < 200 | < 500 |
| COc1cc(C(=O)NC[C@@](O)(c2ccccc2)c2cc3c(c(-c4cc(Cl)c(F)cc4F)n2)OC[C@]3(C)C(N)=O)cc2sc(N)nc12 [Example 157] |  | < 200 | < 500 |
| COc1cc(C(=O)NC[C@@](O)(c2cccc(F)c2)c2cc3c(c(-c4cccc(Cl)c4Cl)n2)OC[C@]3(C)C(N)=O)cc2oc(C3CC3)nc12 [Example 292] |  | < 200 | < 500 |
| COc1cc(C(=O)NC[C@@](O)(c2cccc(F)c2)c2cc3c(c(-c4ccc(F)c(Cl)c4Cl)n2)OC[C@]3(C)C(N)=O)cc2cn(C3(F)CC3)nc12 [Example 269] |  | < 200 | < 500 |
| COc1cc(C(=O)NC[C@@](O)(c2ccccc2)c2cc3c(c(-c4cc(Cl)ccc4F)n2)OC[C@]3(C)C(N)=O)cc2cc(C3CC3)nn12 [Example 146] |  | < 200 | < 500 |
| [2H]C([2H])([2H])c1nc2ccc(C(=O)NC[C@@](O)(c3cccc(F)c3)c3cc4c(c(-c5ccc(F)c(Cl)c5Cl)n3)OC[C@]4(C)C(N)=O)cc2o1 [Example 281] |  | < 200 | < 500 |
| COc1cc(C(=O)NC[C@@](O)(c2ccccc2)c2cc3c(c(-c4cc(Cl)c(F)cc4F)n2)OC[C@]3(C)C(N)=O)cc2cc(Cl)cnc12 [Example 187] |  | < 200 | < 500 |
| C[C@]1(C(N)=O)COc2c1cc([C@@](O)(CNC(=O)c1cc(OCCO)c3nn(C4CC4)cc3c1)C1CC1)nc2-c1ccc(F)c(Cl)c1F [Example 37] |  | < 200 | > 500 |
| COc1cc(C(=O)NC[C@@](O)(c2ccccc2)c2cc3c(c(-c4cc(Cl)c(F)cc4F)n2)OC[C@]3(C)C(N)=O)cc2cc(C)nnc12 [Example 89] |  | < 200 | < 500 |
| C[C@]1(C(N)=O)COc2c1cc([C@@](O)(CNC(=O)c1cc(OC3CC3)c3nn(C4(F)CC4)cc3c1)c1ccccc1)nc2-c1cccc(Cl)c1Cl [Example 266] |  | < 200 | < 500 |
| C[C@]1(C(N)=O)COc2c1cc([C@@](O)(CNC(=O)c1cc(OC3CC3)n3nc(C4CC4)cc3c1)C1CC1)nc2-c1cc(Cl)c(F)cc1F [Example 4] |  | < 200 | < 500 |
| COc1cc(C(=O)NC[C@@](O)(c2ccc(F)cc2)c2cc3c(c(-c4ccc5c(c4Cl)OC(F)(F)O5)n2)OC[C@]3(C)C(N)=O)cc2cn(C(F)F)nc12 [Example 264] |  | < 200 | < 500 |
| C[C@]1(C(N)=O)COc2c1cc([C@@](O)(CNC(=O)c1cc(OC3CC3)c3nn(C(F)F)cc3c1)c1ccc(F)cc1)nc2-c1ccc2c(c1Cl)OC(F)(F)O2 [Example 265] |  | < 200 | < 500 |
